Laboratory results reported in patent US9902736B2, “1-oxo/acylation-14-acylated oridonin derivative, preparation method therefor and application thereof” (HANGZHOU BENSHENG PHARMACEUTICAL CO., LTD., priority 2012, dated 2018).
Values after ≈ are worked out from the molar mass of the structure shown.

Tests used:
[1] = test system: CNE; experiment: Solid tumor cell growth inhibition, MTT, 72 h; type: cell-based, human; conditions: Homo sapiens, CNE; 72 h, MTT
Summary of the method: (§1)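 Viable cell concentration served as the readout. Cells (6000 per well) grown in DMEM High Glucose containing 10% FBS received the derivatives at several concentrations following an initial day of culture at 37° C, 5% CO2.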

[2] = test system: Hep-2; experiment: Solid tumor cell growth inhibition, MTT, 72 h; type: cell-based, human; conditions: Homo sapiens, HEp-2; 72 h, MTT
Summary of the method: as §1

[3] = test system: MGC-803; experiment: Solid tumor cell growth inhibition, MTT, 72 h; type: cell-based, human; conditions: Homo sapiens, MGC-803; 72 h, MTT
Summary of the method: as §1

[4] = test system: Hela; experiment: Solid tumor cell growth inhibition, MTT, 72 h; type: cell-based, human; conditions: Homo sapiens, HeLa; 72 h, MTT
Summary of the method: as §1

[5] = test system: H9; experiment: Leukemia cell growth inhibition, MTT, 72 h; type: cell-based, human; conditions: for IC50 / IC90: Homo sapiens, H9, 72 h, MTT
Summary of the method: (§2)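 MTT read-out of viable cell concentration after 72 hours of exposure at 37° C under 5% CO2. Compounds were dosed at several concentrations one day after plating 6000 cells per well.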

[6] = test system: NB4; experiment: Leukemia cell growth inhibition, MTT, 72 h; type: cell-based, human; conditions: for IC50 / IC90: Homo sapiens, NB-4, 72 h, MTT
Summary of the method: as §2

[7] = test system: Jurkat; experiment: Leukemia cell growth inhibition, MTT, 72 h; type: cell-based, human; conditions: Homo sapiens, Jurkat; 72 h, MTT
Summary of the method: as §2

[8] = test system: Kasumi-1; experiment: Leukemia cell growth inhibition, MTT, 72 h; type: cell-based; conditions: Homo sapiens
Summary of the method: as §2

[9] = test system: K562/ADR; experiment: Leukemia cell growth inhibition, MTT, 72 h; type: cell-based; conditions: Homo sapiens
Summary of the method: as §2

[10] = test system: PANC-1; experiment: Solid tumor cell growth inhibition, MTT, 72 h; type: cell-based; conditions: Homo sapiens
Summary of the method: as §1

[11] = test system: Becap-37; experiment: Solid tumor cell growth inhibition, MTT, 72 h; type: cell-based; conditions: Homo sapiens
Summary of the method: as §1

[12] = test system: CaEs-17; experiment: Solid tumor cell growth inhibition, MTT, 72 h; type: cell-based; conditions: Homo sapiens, CaEs17
Summary of the method: as §1

[13] = test system: U87-MG; experiment: Solid tumor cell growth inhibition, MTT, 72 h; type: cell-based; conditions: Homo sapiens, U-87 MG
Summary of the method: as §1

[14] = test system: PC-3; experiment: Solid tumor cell growth inhibition, MTT, 72 h; type: cell-based; conditions: Homo sapiens
Summary of the method: as §1

[15] = test system: Hep G2; experiment: Solid tumor cell growth inhibition, MTT, 72 h; type: cell-based; conditions: Homo sapiens, HepG2
Summary of the method: as §1

[16] = test system: MG-63; experiment: Solid tumor cell growth inhibition, MTT, 72 h; type: cell-based; conditions: Homo sapiens
Summary of the method: as §1

[17] = test system: RKO; experiment: Solid tumor cell growth inhibition, MTT, 72 h; type: cell-based; conditions: Homo sapiens
Summary of the method: as §1

[18] = test system: SK-OV-3; experiment: Solid tumor cell growth inhibition, MTT, 72 h; type: cell-based; conditions: Homo sapiens, SK-OV-3, 72 h, MTT; for IC50: read-out: IC50 SK-OV-3; for IC90: read-out: IC90 SK-OV-3
Summary of the method: as §1

[19] = test system: A549; experiment: Solid tumor cell growth inhibition, MTT, 72 h; type: cell-based; conditions: Homo sapiens
Summary of the method: as §1

[20] = test system: RPMI 8226; experiment: Multiple myeloma cell growth inhibition, MTT, 72 h; type: cell-based; conditions: Homo sapiens
Summary of the method: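 Growth inhibition by MTT after 72 h drug exposure (37 °C, 5% CO2) over a concentration range of oridonin derivatives. RPMI 8226 cells plated at 6000 per well and dosed the following day.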

`C=C1C(=O)[C@]23[C@H](OC(=O)c4ccc(Cl)cc4)[C@H]1CC[C@H]2[C@@]12CO[C@@]3(O)[C@@H](O)[C@@H]1C(C)(C)CC[C@@H]2OC(C)=O` [BS-OR-093] showed an IC50 [1] of 1.31 mg/L (≈ 2.4 µM), an IC90 [1] of 5.02 mg/L (≈ 9.21 µM) and an IC50 [2] of 1.42 mg/L (≈ 2.61 µM). It also gave an IC90 [2] of 6.91 mg/L (≈ 12.7 µM), an IC50 [3] of 0.79 mg/L (≈ 1.45 µM) and an IC90 [3] of 6.73 mg/L (≈ 12.3 µM). For the same molecule, the IC50 [4] was 1.02 mg/L (≈ 1.87 µM), the IC90 [4] was 3.45 mg/L (≈ 6.33 µM) and the IC50 [5] was 0.06 mg/L (≈ 0.11 µM). For the same molecule, the IC90 [5] was 0.33 mg/L (≈ 0.605 µM), the “anti-H9 cell line activity increased” value ([5]; as compared with oridonin) was 22 fold and the IC50 [6] was 0.05 mg/L (≈ 0.0917 µM). The IC90 [6] was 0.47 mg/L (≈ 0.862 µM), the “anti-NB4 cell line activity increased” value ([6]; as compared with oridonin) was 15 fold and the IC50 [7] was 0.44 mg/L (≈ 0.807 µM). It also gave an IC90 [7] of 3.03 mg/L (≈ 5.56 µM), an IC50 [8] of 0.41 mg/L (≈ 0.752 µM) and an IC90 [8] of 1.31 mg/L (≈ 2.4 µM). It also gave an IC50 [9] of 0.37 mg/L (≈ 0.679 µM), an IC90 [9] of 1.57 mg/L (≈ 2.88 µM) and an IC50 [10] of 1.69 mg/L (≈ 3.1 µM). For the same molecule, the IC90 [10] was 9.36 mg/L (≈ 17.2 µM), the IC50 [11] was 1.1 mg/L (≈ 2.02 µM) and the IC90 [11] was 1.99 mg/L (≈ 3.65 µM). For the same molecule, the IC50 [12] was 0.86 mg/L (≈ 1.58 µM), the IC90 [12] was 5.21 mg/L (≈ 9.56 µM) and the IC50 [13] was 0.56 mg/L (≈ 1.03 µM). The IC90 [13] was 1.89 mg/L (≈ 3.47 µM), the IC50 [14] was 1.6 mg/L (≈ 2.94 µM) and the IC90 [14] was 5.12 mg/L (≈ 9.39 µM). It also gave an IC50 [15] of 0.96 mg/L (≈ 1.76 µM), an IC90 [15] of 7.13 mg/L (≈ 13.1 µM) and an IC50 [16] of 0.45 mg/L (≈ 0.826 µM). The IC90 [16] was 2.31 mg/L (≈ 4.24 µM), the IC50 [17] was 0.41 mg/L (≈ 0.752 µM) and the IC90 [17] was 0.92 mg/L (≈ 1.69 µM). For the same molecule, the IC50 [18] was 1.6 mg/L (≈ 2.94 µM), the IC90 [18] was 5.12 mg/L (≈ 9.39 µM) and the IC50 [19] was 1.78 mg/L (≈ 3.27 µM). For the same molecule, the IC90 [19] was 6.68 mg/L (≈ 12.3 µM), the IC50 [20] was 0.2 mg/L (≈ 0.367 µM) and the IC90 [20] was 1.55 mg/L (≈ 2.84 µM).

Molecule `C=C1C(=O)[C@]23[C@H](OC(=O)/C=C/c4ccccc4)[C@H]1CC[C@H]2[C@@]12CO[C@@]3(O)[C@@H](O)[C@@H]1C(C)(C)CC[C@@H]2OC(C)=O` [BS-OR-094] has an IC50 [1] of 1.32 mg/L (≈ 2.46 µM), an IC90 [1] of 5.04 mg/L (≈ 9.39 µM) and an IC50 [2] of 1.68 mg/L (≈ 3.13 µM). The IC90 [2] was 7.46 mg/L (≈ 13.9 µM), the IC50 [3] was 1.39 mg/L (≈ 2.59 µM) and the IC90 [3] was 12.1 mg/L (≈ 22.5 µM). The IC50 [4] was 1.54 mg/L (≈ 2.87 µM), the IC90 [4] was 4.45 mg/L (≈ 8.29 µM) and the IC50 [5] was 0.19 mg/L (≈ 0.354 µM). The IC90 [5] was 0.49 mg/L (≈ 0.913 µM), the IC50 [6] was 0.1 mg/L (≈ 0.186 µM) and the IC90 [6] was 0.49 mg/L (≈ 0.913 µM). It also gave an IC50 [7] of 0.65 mg/L (≈ 1.21 µM), an IC90 [7] of 2.68 mg/L (≈ 4.99 µM) and an IC50 [8] of 0.72 mg/L (≈ 1.34 µM). For the same molecule, the IC90 [8] was 1.72 mg/L (≈ 3.21 µM), the IC50 [9] was 0.7 mg/L (≈ 1.3 µM) and the IC90 [9] was 2.17 mg/L (≈ 4.04 µM). For the same molecule, the IC50 [10] was 1.82 mg/L (≈ 3.39 µM), the IC90 [10] was 9.91 mg/L (≈ 18.5 µM) and the IC50 [11] was 1.15 mg/L (≈ 2.14 µM). The IC90 [11] was 3.31 mg/L (≈ 6.17 µM), the IC50 [12] was 0.94 mg/L (≈ 1.75 µM) and the IC90 [12] was 6.26 mg/L (≈ 11.7 µM). The IC50 [13] was 0.6 mg/L (≈ 1.12 µM), the IC90 [13] was 1.86 mg/L (≈ 3.47 µM) and the IC50 [14] was 1.66 mg/L (≈ 3.09 µM). The IC90 [14] was 4.52 mg/L (≈ 8.42 µM), the IC50 [15] was 1.42 mg/L (≈ 2.65 µM) and the IC90 [15] was 7.47 mg/L (≈ 13.9 µM). The IC50 [16] was 0.47 mg/L (≈ 0.876 µM), the IC90 [16] was 1 mg/L (≈ 1.86 µM) and the IC50 [17] was 0.38 mg/L (≈ 0.708 µM). It also gave an IC90 [17] of 0.75 mg/L (≈ 1.4 µM), an IC50 [18] of 1.66 mg/L (≈ 3.09 µM) and an IC90 [18] of 4.52 mg/L (≈ 8.42 µM). For the same molecule, the IC50 [19] was 2.87 mg/L (≈ 5.35 µM), the IC90 [19] was 9.95 mg/L (≈ 18.5 µM) and the IC50 [20] was 0.49 mg/L (≈ 0.913 µM). It also gave an IC90 [20] of 1.75 mg/L (≈ 3.26 µM).

For `C=C1C(=O)[C@]23[C@H](O)[C@H]1CC[C@H]2[C@@]12CO[C@]3(O)[C@@H](O)[C@@H]1C(C)(C)CC[C@@H]2O` [OR, Oridonin], the IC50 [1] was 5.45 mg/L (≈ 15 µM), the IC90 [1] was 10.5 mg/L (≈ 28.9 µM) and the IC50 [2] was 4.66 mg/L (≈ 12.8 µM). The IC90 [2] was 7.99 mg/L (≈ 21.9 µM), the IC50 [3] was 5.88 mg/L (≈ 16.1 µM) and the IC90 [3] was 7.95 mg/L (≈ 21.8 µM). It also gave an IC50 [4] of 5.22 mg/L (≈ 14.3 µM), an IC90 [4] of 10.7 mg/L (≈ 29.4 µM) and an IC50 [5] of 1.36 mg/L (≈ 3.73 µM). It also gave an IC90 [5] of 3.57 mg/L (≈ 9.8 µM), an IC50 [6] of 0.78 mg/L (≈ 2.14 µM) and an IC90 [6] of 2.4 mg/L (≈ 6.59 µM). The IC50 [7] was 1.89 mg/L (≈ 5.19 µM), the IC90 [7] was 3.95 mg/L (≈ 10.8 µM) and the IC50 [8] was 1.32 mg/L (≈ 3.62 µM). The IC90 [8] was 3.72 mg/L (≈ 10.2 µM), the IC50 [9] was 1.32 mg/L (≈ 3.62 µM) and the IC90 [9] was 3.46 mg/L (≈ 9.49 µM). For the same molecule, the IC50 [10] was 9.1 mg/L (≈ 25 µM), the IC90 [10] was 16 mg/L (≈ 43.9 µM) and the IC50 [11] was 5.06 mg/L (≈ 13.9 µM). It also gave an IC90 [11] of 12.9 mg/L (≈ 35.5 µM), an IC50 [12] of 3.31 mg/L (≈ 9.08 µM) and an IC90 [12] of 6.86 mg/L (≈ 18.8 µM). It also gave an IC50 [13] of 2.58 mg/L (≈ 7.08 µM), an IC90 [13] of 6.67 mg/L (≈ 18.3 µM) and an IC50 [14] of 7.94 mg/L (≈ 21.8 µM). It also gave an IC90 [14] of 13 mg/L (≈ 35.6 µM), an IC50 [15] of 6.77 mg/L (≈ 18.6 µM) and an IC90 [15] of 13.1 mg/L (≈ 36 µM). For the same molecule, the IC50 [16] was 1.86 mg/L (≈ 5.1 µM), the IC90 [16] was 5.6 mg/L (≈ 15.4 µM) and the IC50 [17] was 2.24 mg/L (≈ 6.15 µM). For the same molecule, the IC90 [17] was 3.96 mg/L (≈ 10.9 µM), the IC50 [18] was 7.94 mg/L (≈ 21.8 µM) and the IC90 [18] was 13 mg/L (≈ 35.6 µM). The IC50 [19] was 13.7 mg/L (≈ 37.6 µM), the IC90 [19] was > 16 mg/L and the IC50 [20] was 2.73 mg/L (≈ 7.49 µM). The IC90 [20] was 5.68 mg/L (≈ 15.6 µM).
